{"source": "patent US9352049B2", "about": "“Ligand-therapeutic agent conjugates, silicon-based linkers, and methods for making and using them” (Albany Molecular Research, Inc., priority 2013, dated 2016)", "key": {"[1]": {"experiment": "Cleavage study of silyl conjugates at pH 4.5 (1:1 THF:0.05 M acetate buffer, 37° C., HPLC)", "format": "physicochemical", "settings": "HPLC over 24 hours", "method": "(§1) To study the release properties of the silyl conjugates, the conjugates were subject to hydrolysis conditions at both pH 7.4 and pH 4.5 to simulate blood and endosomes/lysosome environments, respectively.\nThe benzyl ester intermediates from Example 11 (step A), Example 12, Example 13, Example 14 (step A), and Example 15 were each dissolved in a 1:1 mixture of THF:0.05 M acetate buffer (pH 4.5) and heated to 37° C. with stirring. The mixture was analyzed with HPLC at T=1, 2, 3, 4, 5, 7 and 24 hours via Method B (see General Procedures in Example 1). Aliquots were quenched in a 1:1 acetonitrile:triethylamine solvent mixture to halt the hydrolysis reaction and allowed to stand up to 48 hours before HPLC analysis."}, "[2]": {"experiment": "Cleavage study of silyl conjugates at pH 7.4 (THF:0.01 M PBS buffer, 37° C.)", "format": "physicochemical", "settings": "pH 7.4, 37° C., after 24 hours", "method": "as §1\nExample 12 and Example 15 were dissolved in THF:0.01 M PBS buffer (pH 7.4) and heated to 37° C. with stirring for over 20 hours. […] Additionally, Example 11 was trapped with methyl-3-mercaptopropionate to approximate a bioconjugate."}}, "data": [{"smiles": "CC[C@]1(O)CC2CN(CCc3c([nH]c4ccccc34)[C@@](C(=O)OC)(c3cc4c(cc3OC)N(C)[C@H]3[C@@](O)(C(=O)OC)[C@H](O[Si]5(CCCCC(=O)NCCOCCN6C(=O)CC(SCCC(=O)OC)C6=O)CCCCC5)[C@]5(CC)C=CCN6CC[C@]43[C@@H]65)C2)C1", "note": "(stereo partly drawn) [Example 19, (3aR,3a^1R,4R,5S,10bR)-methyl 3a-ethyl-9-((5S,7R,9S)-5-ethyl-5-hydroxy-9-(methoxycarbonyl)-2,4,5,6,7,8,9,10-octahydro-1H-3,7-methano[1]azacycloundecino[5,4-b]indol-9-yl)-5-hydroxy-8-methoxy-4-((1-(5-((2-(2-(3-((3-methoxy-3-oxopropyl)thio)-2,5-dioxopyrrolidin-1-yl)ethoxy)ethyl)amino)-5-oxopentyl)silinan-1-yl)oxy)-6-methyl-3a,3a^1,4,5,5a,6,11,12-octahydro-1H-indolizino[8,1-cd]carbazole-5-carboxylate]", "values": [{"measurement": "hydrolysis (release of desilylated parent vinca) in acidic media", "setting": "[1]", "result": "undergo parent vinca release at a rate comparable to the corresponding benzyl ester from Example 11 (step A)"}, {"measurement": "desilylation at pH 7.4", "setting": "[2]", "result": "no desilylation was observed"}]}]}
